Laboratory results from patent US9783523B2, “N-acylimino heterocyclic compounds” (BASF SE, priority 2013, dated 2017).

How the values were obtained:
Assay type in all cases: in vivo
[1] = test system: Bemisia argentifolii; assay: Silverleaf whitefly (Bemisia argentifolii) adults, sprayed cotton plants; conditions: 72 h, read-out: mortality in comparison with untreated controls
Experimental: (§1) The active compounds were formulated in cyclohexanone as a 10,000 ppm solution supplied in 1.3 ml ABgene® tubes. These tubes were inserted into an automated electrostatic sprayer equipped with an atomizing nozzle and they served as stock solutions for which lower dilutions were made in 1:1 (vol:vol) water: aceton. A nonionic surfactant (Kinetic®) was included in the solution at a volume of 0.01% (v/v).
Cotton plants at the cotyledon stage (one plant per pot) were sprayed by an automated electrostatic plant sprayer equipped with an atomizing spray nozzle. The plants were dried in the sprayer fume hood and then removed from the sprayer. Each pot was placed into a plastic cup and 10 to 12 whitefly adults (approximately 3-5 days old) were introduced. The insects were collected using an aspirator and 0.6 cm, nontoxic Tygon® tubing (R-3603) connected to a barrier pipette tip. The tip, containing the collected insects, was then gently inserted into the soil containing the treated plant, allowing insects to crawl out of the tip to reach the foliage for feeding. Cups were covered with a reusable screened lid (150-micron mesh polyester screen PeCap from Tetko, Inc.). […] Mortality was assessed 3 days after treatment, compared to untreated control plants.

[2] = test system: Aphis craccivora; assay: Cowpea aphid (Aphis craccivora), potted cowpea plants sprayed; conditions: 72 h, read-out: mortality in comparison with untreated controls
Experimental: The active compound is dissolved at the desired concentration in a mixture of 1:1 (vol:vol) distilled water:acetone. Surfactant (Alkamuls® EL 620) is added at a rate of 0.1% (vol/vol). The test solution is prepared at the day of use.
Potted cowpea plants are colonized with approximately 50-100 aphids of various stages by manually transferring a leaf tissue cut from infested plant 24 hours before application. Plants are sprayed after the pest population has been recorded. Treated plants are maintained on light carts at about 28° C. Percent mortality is assessed after 72 hours.

[3] = test system: Nilaparvata lugens; assay: Rice brown plant hopper (Nilaparvata lugens), sprayed rice seedlings; conditions: 72 h, read-out: mortality in comparison with untreated controls
Experimental: (§2) Rice seedlings are cleaned and washed 24 hours before spraying. The active compounds is formulated in 50:50 acetone:water (vol:vol) and 0.1% vol/vol surfactant (EL 620) was added. Potted rice seedlings are sprayed with 5 ml test solution, air dried, placed in cages and inoculated with 10 adults. Treated rice plants are kept at about 28-29° C. and relative humidity of about 50-60%. Percent mortality is recorded after 72 hours.

[4] = test system: Megoura viciae; assay: Vetch aphid (Megoura viciae), sprayed bean leaf disks in microtiter plates; conditions: foliar, 144 h, read-out: mortality in comparison with untreated controls
Experimental: The active compounds were formulated in 3:1 (vol:vol) water:DMSO with different concentrations of formulated compounds.
Bean leaf disks were placed into microtiterplates filled with 0.8% agar-agar and 2.5 ppm OPUS™. The leaf disks were sprayed with 2.5 μl of the test solution and 5 to 8 adult aphids were placed into the microtiter plates which were then closed and kept at 23±1° C. and 50±5% relative humidity under fluorescent light for 6 days. Mortality was assessed on the basis of vital, reproduced aphids. Aphid mortality and fecundity was then visually assessed.

[5] = test system: Spodoptera eridania; assay: Southern armyworm (Spodoptera eridania), sprayed lima bean plants; conditions: 96 h, read-out: mortality in comparison with untreated controls
Experimental: as §1, with “in” for “in 1.3 ml ABgene®”, “The” for “These”, “50% acetone:50% water (v/v).” for “1:1 (vol:vol) water: aceton.”
Lima bean plants (variety Sieva) were grown 2 plants to a pot and selected for treatment at the 1st true leaf stage. Test solutions were sprayed onto the foliage by an automated electrostatic plant sprayer equipped with an atomizing spray nozzle. The plants were dried in the sprayer fume hood and then removed from the sprayer. Each pot was placed into perforated plastic bags with a zip closure. About 10 to 11 armyworm larvae were placed into the bag and the bags zipped closed. Test plants were maintained in a growth room at about 25° C. and about 20-40% relative humidity for 4 days, avoiding direct exposure to fluorescent light (24 hour photoperiod) to prevent trapping of heat inside the bags. Mortality and reduced feeding were assessed 4 days after treatment, compared to untreated control plants.

[6] = test system: Anthonomus grandis; assay: Boll weevil (Anthonomus grandis), eggs on insect diet in 24-well microtiter plates; conditions: 120 h, read-out: mortality in comparison with untreated controls
Experimental: The compounds were formulated in 3:1 (vol:vol) water:DMSO.
For evaluating control of boll weevil (Anthonomus grandis) the test unit consisted of 24-well-microtiter plates containing an insect diet and 20-30 A. grandis eggs. Different concentrations of formulated compounds were sprayed onto the insect diet at 20 μl, using a custom built micro atomizer, at two replications. After application, the microtiter plates were incubated at 23±1° C. and 50±5% relative humidity for 5 days. Egg and larval mortality was then visually assessed.

[7] = test system: Aphis gossypi; assay: Cotton aphid (Aphis gossypi), infested cotton plants sprayed; conditions: 120 h, read-out: mortality in comparison with untreated controls
Experimental: as §1, with “water:aceton.” for “water: aceton.”
Cotton plants at the cotyledon stage were infested with aphids prior to treatment by placing a heavily infested leaf from the main aphid colony on top of each cotyledon. Aphids were allowed to transfer overnight to accomplish an infestation of 80-100 aphids per plant and the host leaf was removed. The infested plants were then sprayed by an automated electrostatic plant sprayer equipped with an atomizing spray nozzle. The plants were dried in the sprayer fume hood, removed from the sprayer, and then maintained in a growth room under fluorescent lighting in a 24-hr photoperiod at 25° C. and 20-40% relative humidity. Aphid mortality on the treated plants, relative to mortality on untreated control plants, was determined after 5 days.

[8] = test system: Nezara viridula; assay: Green soldier stink bug (Nezara viridula), sprayed soybean pods in Petri dishes; conditions: 120 h, read-out: mortality in comparison with untreated controls
Experimental: The active compound is dissolved at the desired concentration in a mixture of 1:1 (vol:vol) distilled water:aceteone. Surfactant (Kinetic HV) is added at a rate of 0.01% (vol/vol). The test solution is prepared at the day of use.
Soybean pods were placed in 90×50 mm glass Petri dishes lined with moist filter paper and inoculated with ten late 3rd instar N. viridula. Using a hand atomizer, an approximately 2 ml solution is sprayed into each Petri dish. Treated cups were kept at about 25-26° C. and relative humidity of about 65-70%. Percent mortality was recorded after 5 days.

[9] = test system: Nephotettix virescens; assay: Rice green leafhopper (Nephotettix virescens), sprayed rice seedlings; conditions: 72 h, read-out: mortality in comparison with untreated controls
Experimental: as §2, with “compounds are” for “compounds is”, “acetone:water (vol:vol),” for “acetone:water (vol:vol)”, “620) is” for “620) was”

[10] = test system: Dichromothrips corbetti; assay: Orchid thrips (Dichromothrips corbetti), floral-immersion technique; conditions: 72 h, read-out: mortality in comparison with untreated controls
Experimental: Dichromothrips corbetti adults used for bioassay are obtained from a colony maintained continuously under laboratory conditions. For testing purposes, the test compound is diluted in a 1:1 mixture of acetone:water (vol:vol), plus 0.01% vol/vol Alkamuls® EL 620 surfactant.
Thrips potency of each compound is evaluated by using a floral-immersion technique. Plastic petri dishes are used as test arenas. All petals of individual, intact orchid flowers are dipped into treatment solution and allowed to dry. Treated flowers are placed into individual petri dishes along with about 20 adult thrips. The petri dishes are then covered with lids. All test arenas are held under continuous light and a temperature of about 28° C. for duration of the assay. After 3 days, the numbers of live thrips are counted on each flower, and along inner walls of each petri dish. The percent mortality is recorded 72 hours after treatment.

[11] = test system: Ceratitis capitata; assay: Mediterranean fruitfly (Ceratitis capitata), eggs on insect diet in microtiter plates; conditions: 120 h, read-out: mortality in comparison with untreated controls
Experimental: For evaluating control of Mediterranean fruitfly (Ceratitis capitata) the test unit consisted of microtiter plates containing an insect diet and 50-80 C. capitata eggs.
The compounds were formulated using a solution containing 75% v/v water and 25% v/v DMSO. Different concentrations of formulated compounds were sprayed onto the insect diet at 5 μl, using a custom built micro atomizer, at two replications.
After application, microtiter plates were incubated at about 28±1° C. and about 80±5% relative humidity for 5 days. Egg and larval mortality was then visually assessed.

[12] = test system: Heliothis virescens; assay: Tobacco budworm (Heliothis virescens), eggs on insect diet in 96-well microtiter plates; conditions: 120 h, read-out: mortality in comparison with untreated controls
Experimental: For evaluating control of tobacco budworm (Heliothis virescens) the test unit consisted of 96-well-microtiter plates containing an insect diet and 15-25 H. virescens eggs.
The compounds were formulated using a solution containing 75% v/v water and 25% v/v DMSO. Different concentrations of formulated compounds were sprayed onto the insect diet at 10 μl, using a custom built micro atomizer, at two replications.
After application, microtiter plates were incubated at about 28+1° C. and about 80+5% relative humidity for 5 days. Egg and larval mortality was then visually assessed.

[13] = test system: Plutella xylostella; assay: Diamond back moth (Plutella xylostella), dipped cabbage leaves; conditions: 72 h, read-out: mortality in comparison with untreated controls
Experimental: The active compound is dissolved at the desired concentration in a mixture of 1:1 (vol:vol) distilled water:aceteone. Surfactant (Alkamuls® EL 620) is added at a rate of 0.1% (vol/vol). The test solution is prepared at the day of use.
Leaves of cabbage were dipped in test solution and air-dried. Treated leaves were placed in petri dish eslined with moist filter paper and inoculated with ten 3rd instar larvae. Mortality was recorded 72 hours after treatment. Feeding damages were also recorded using a scale of 0-100%.

[14] = test system: Myzus persicae; assay: Green peach aphid (Myzus persicae), systemic control, liquid artificial diet under membrane in 96-well microtiter plates; conditions: 72 h, read-out: mortality in comparison with untreated controls
Description: General conditions: If not otherwise specified, most test solutions are to be prepared as follows: The active compound is to be dissolved at the desired concentration in a mixture of 1:1 (vol:vol) distilled water:acteon. Further, the test solutions are to be prepared at the day of use (and, if not otherwised specified, in general at concentrations wt/vol).
For evaluating control of green peach aphid (Myzus persicae) through systemic means, the test unit consists of 96-well-microtiter plates containing liquid artificial diet under an artificial membrane.
The compounds are formulated using a solution containing 75% v/v water and 25% v/v DMSO. Different concentrations of formulated compounds are pipetted into the aphid diet, using a custom built pipetter, at two replications.
After application, 5-8 adult aphids are placed on the artificial membrane inside the microtiter plate wells. The aphids are then allowed to suck on the treated aphid diet and incubated at about 23+1° C. and about 50+5% relative humidity for 3 days. Aphid mortality and fecundity is then visually assessed.

CO/N=C/C(=O)/N=c1\ccccn1Cc1ccc(Cl)nc1 [Compound I-15]
≥ 75%: mortality at 300 ppm [1] | mortality at 500 ppm [2] | mortality at 500 ppm [3] | mortality at 2500 ppm [4] | mortality at 300 ppm [5] | mortality at 2500 ppm [6] | mortality at 300 ppm [7] | mortality at 500 ppm [8] | mortality at 300 ppm [9] | mortality at 500 ppm [10] | mortality at 2500 ppm [11] | mortality at 2500 ppm [12] | mortality at 500 ppm [13] | mortality at 2500 ppm [14]
